Experimental findings from patent publication US12589025B2, “Intraocular devices, systems, and methods” (Sight Sciences, Inc., priority 2021, dated 2026) are described below.

On the set-up of this data set: species or system Yucatan pigs. To be noted: pig, in vivo. An excerpt:
Poly(lactic-co-glycolic acid) (PLGA) implants comprising bimatoprost were implanted into the eyes of 3 month old Yucatan pigs (6 pigs total). Prior to delivering the implant to either the sclera (fully intrascleral; “intrascleral arm”) or partially in the limbus (one end residing in the limbus, one end residing in the sclera; “limbal arm”), the pigs were placed under general anesthesia, and a lid speculum was inserted. Intraocular pressure was checked, and corneal thickness was checked in 4 quadrants, and centrally, using ultrasonic corneal pachymetry. The lid speculum was then removed.
In each of the 6 pigs, the right eye received one implant, and the left eye received 2 implants. In order to accomplish this, betadine drops were placed onto the left eyes of each pig and an eyelid speculum is inserted. A surgical operating microscope was positioned to visualize the implantation. Each eye was infraducted with a traction suture. A small conjunctival peritomy was created, and the sclera was marked with gentian violet-tipped calipers 2 mm posterior to the limbus. 10-0 nylon marking sutures were then placed 3-4 mm posterior to the limbus. A 27 G needle on a TB syringe was used to preform a tunnel for implantation toward the anterior chamber (group 1) or across the sclera (group 2). The implant was then deployed into the preformed tunnel, and the traction suture was released. Polymyxin-trimethoprim and tobramycin-dexamethasone drops were then placed in each eye, and the speculum was removed. The procedure was then repeated with two implants in each pig's […] eye.
At month 1, the pigs were examined, and one pig from each group was euthanized and the eyes were removed and placed in formalin for pathology. Aqueous samples from each of the 6 pigs were collected and analyzed for the presence of bimatoprost and Bimatoprost Acid (a metabolite of bimatoprost). At weeks 3, 10, and 20, the remaining pigs in each group were examined for redness, inflammation, eye rubbing, miosis, and squinting, as above.
At month 3, the remaining pigs were examined and aqueous samples collected (as above), and one of the remaining pigs from each group was euthanized (as above) for pathology.
The histopathology of the eyes is evaluated, as is the concentration of bimatoprost, and metabolites thereof, in the anterior chambers. The concentrations of bimatoprost and the bimatoprost acid metabolite in the anterior chamber of each pig's eyes are shown in FIGS. 24A-24D, at the time points described above. FIG. 24A and FIG. 24B show the concentrations of bimatoprost and the bimatoprost acid metabolite, respectively, for the three pigs (A1, A2, and A6) implanted with the intrascleral implant. […]

Regarding `O=C(O)CCC/C=C\C[C@@H]1[C@@H](/C=C/[C@@H](O)CCc2ccccc2)[C@H](O)C[C@@H]1O` [Bimatoprost Acid], the “Bimatoprost Acid concentration, limbal arm compared to intrascleral arm” value is “higher concentration in the limbal arm” and the “presence of Bimatoprost Acid (metabolite of bimatoprost) in aqueous samples” value was “detectable”.

Take `CCNC(=O)CCC/C=C\C[C@@H]1[C@@H](/C=C/[C@@H](O)CCc2ccccc2)[C@H](O)C[C@@H]1O` [bimatoprost]: the “bimatoprost aqueous levels, limbal arm compared to intrascleral arm” value is “both higher and more sustained aqueous levels in the limbal arm”; the “presence of bimatoprost in the aqueous humor” value is “detectable”.
